The values that follow are results of earlier work, collected in patent US5968795A, “Biaryl acetylenes as inhibitors of matrix metalloproteases” (Bayer Corporation, priority 1997, dated 1999).

Structures are written as SMILES.

The test system of data set [1] is human ovarian carcinoma xenografts. The note with it: given intraperitoneally; cited from earlier work.
The test system of data set [2] is human colon tumor. The note with it: given intraperitoneally; orthotopic model in nude mice; cited from earlier work.

`CNC(=O)[C@H](Cc1ccccc1)NC(=O)[C@H](CC(C)C)[C@H](CSc1cccs1)C(=O)NO` [batimastat]: the “survival of mice bearing human ovarian carcinoma xenografts” value in data set [1] is “prolongs the survival of mice”. The “human colon tumor growth and spread” value in data set [2] is “inhibits human colon tumor growth and spread”.
